Source: patent US20050113337A1, “Enhancement of oral bioavailability of non-emulsified formulations of prodrug esters with lecithin” (TAP Pharmaceutical Products, Inc., priority 2001, published 2005)

Columns and labels:
[1] = Solubility of cefditoren pivoxil in lecithin dispersions; format: physicochemical
Description: The solubility of cefditoren pivoxil in various lecithins was determined as follows. Three types of lecithin were tested: lecithin (LECI-PC 35P available from Traco Labs, IL), modified lecithin (containing 70% maltodextrin and 30% phosphatidyl choline; ALCOLEC SM 100 available from American Lecithin Inc. of CT) and hydroxylated lecithin (CENTROLENE A, available from Central Soya, IN). 5%, 10% and 15% suspensions of each type of lecithin were made up in distilled deionized water to form the test dispersions. Cefditoren pivoxil (available from Meiji Saika Kaisha Ltd of Japan) was added to each test dispersion. Each sample was vortexed for one minute, sonicated for two minutes, vortexed again for one minute and then centrifuged at 2000 rpm for ten minutes at room temperature. The resulting supernatant fraction was collected, filtered through a 0.45 μm filter and analyzed by HPLC.

[2] = tested on: Carboxylesterase from porcine liver; assay: Esterase degradation of cefditoren pivoxil; format: in vitro ADME; details: 20 minutes, 37° C.; for amount of cefditoren pivoxil remaining: esterase; for % cefditoren pivoxil remaining: simulated intestinal fluid
Description: First, a test was performed to determine whether cefditoren pivoxil is degraded by esterase. 25 mg of cefditoren pivoxil (available from Meiji Saika Kaisha Ltd of Japan) was dissolved in 100 ml of an aqueous solution containing 10% dimethylsulfoxide and 0.1 N. hydrochloric acid to make up an 0.25 mg/ml solution. Carboxylesterase (also referred to as esterase herein) from porcine liver (15 mg protein/ml, 250 units/mg protein, available from Sigma-Aldrich) was dissolved in simulated intestinal fluid (SIF having no added pancreatin, available from Sigma-Aldrich) to make up a solution having 0.5 units/ml.
2 ml of the cefditoren pivoxil solution was then mixed with 2 ml of the esterase solution and 2 ml of simulated intestinal fluid. This mixture was allowed to react for 20 minutes at 37° C. and then the reaction was quenched with 1.0 ml of acetonitrile. This procedure was repeated with esterase at two other concentrations.
The experimental procedure was as described above, except that the cefditoren pivoxil was dissolved in 3% lecithin (LECI-PC 35 P, available from Traco Labs of IL).
The amount of cefditoren pivoxil remaining in each of the samples was determined by HPLC, and compared to the amount of cefditoren pivoxil of a control solution. The control solution was 2.0 ml cefditoren pivoxil, 2.0 ml of 10% modified lecithin solution and 2.0 ml simulated intestinal fluid incubated and then quenched as above.

solubility ([1]; in aqueous lecithin solution (LECI-PC 35P)): 678.5 µg/mL
solubility ([1]; in hydroxylated lecithin (CENTROLENE A)): 715.0 µg/mL
solubility ([1]; in modified lecithin (ALCOLEC SM 100)): 868.1 µg/mL
solubility ([1]; in water alone): 31.8 µg/mL
amount of cefditoren pivoxil remaining ([2]; cefditoren pivoxil dissolved in 3% lecithin (LECI-PC 35 P)): 57.4%
amount of cefditoren pivoxil remaining ([2]; control (non-lecithin containing) solution): 7%
% cefditoren pivoxil remaining ([2]; esterase concentration 0.05 units/ml): 81.9%
% cefditoren pivoxil remaining ([2]; esterase concentration 0.5 units/ml): 4.5%
% cefditoren pivoxil remaining ([2]; esterase concentration 5 units/ml): 0.3%
Substance: cefditoren pivoxil
